Earlier results, collected in patent US10688050B1 (Synthon B.V., priority 2018, dated 2020).
Read-outs that look alike come from different tables or passages of the source.

What was measured:
[1] = not given; remark: listed apart in the source

| solubility (BCS) | solubility ([1]; pH 1.2) | solubility ([1]; pH range from 3 to 8) | SMILES |
| --- | --- | --- | --- |
| low | – | – | C=CC(=O)N1CCC[C@@H](n2nc(-c3ccc(Oc4ccccc4)cc3)c3c(N)ncnc32)C1 [Ibrutinib, 1-[(3R)-3-[4-amino-3-(4-phenoxyphenyl)-1H-pyrazolo[3,4-d]pyrimidin-1-yl]piperidin-1-yl]prop-2-en-1-one] |
| – | slightly soluble | practically insoluble | C=CC(=O)N1CCC[C@@H](n2nc(-c3ccc(Oc4ccccc4)cc3)c3c(N)ncnc32)C1 [ibrutinib form A] |
